ChEMBL document CHEMBL1131735, “Structure-activity relationships of substituted 5H-thiazolo[3,2-a]pyrimidines as group 2 metabotropic glutamate receptor antagonists” (Bioorg Med Chem Lett, 1999)

Biological target: Metabotropic glutamate receptor 2 (Rattus norvegicus, UniProt P31421)
Experiment: Inhibition of 1S,3R-ACPD (10 uM) -stimulated GTP gamma 35S binding on rat Metabotropic glutamate receptor 2 transfected in CHO cells
Format: cell-based

Sequence of Metabotropic glutamate receptor 2 (P31421 whole entry): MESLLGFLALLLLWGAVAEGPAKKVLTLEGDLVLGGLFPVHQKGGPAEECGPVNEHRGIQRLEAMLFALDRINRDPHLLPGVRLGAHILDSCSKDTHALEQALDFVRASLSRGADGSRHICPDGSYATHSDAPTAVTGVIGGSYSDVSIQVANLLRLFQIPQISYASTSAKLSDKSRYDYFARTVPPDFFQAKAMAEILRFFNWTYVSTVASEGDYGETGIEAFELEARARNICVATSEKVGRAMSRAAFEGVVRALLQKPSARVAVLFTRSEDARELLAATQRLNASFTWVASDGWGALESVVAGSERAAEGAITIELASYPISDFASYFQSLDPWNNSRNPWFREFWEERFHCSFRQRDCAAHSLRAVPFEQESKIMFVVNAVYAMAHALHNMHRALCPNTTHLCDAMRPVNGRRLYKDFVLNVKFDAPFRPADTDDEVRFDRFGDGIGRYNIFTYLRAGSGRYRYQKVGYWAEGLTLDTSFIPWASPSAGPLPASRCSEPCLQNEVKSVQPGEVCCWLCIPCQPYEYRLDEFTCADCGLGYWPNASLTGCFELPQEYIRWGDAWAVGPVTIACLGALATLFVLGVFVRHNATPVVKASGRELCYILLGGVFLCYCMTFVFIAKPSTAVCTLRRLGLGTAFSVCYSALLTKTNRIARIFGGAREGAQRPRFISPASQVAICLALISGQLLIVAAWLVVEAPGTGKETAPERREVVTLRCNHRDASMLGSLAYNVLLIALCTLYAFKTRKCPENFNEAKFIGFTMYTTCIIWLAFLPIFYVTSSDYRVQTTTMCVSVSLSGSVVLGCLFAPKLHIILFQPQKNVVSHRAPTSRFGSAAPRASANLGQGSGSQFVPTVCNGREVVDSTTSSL

Question: Which Ki does the source give for `CC1=C(C(=O)OCCN(C)C)C(c2ccccc2C)N2C=C(c3c(Cl)cccc3Cl)SC2=N1` (stereo unspecified) here?
Answer: 8 µM

Question: For `COc1cccc(C2C(C(=O)OCCN(C)C)=C(C)N=C3SC(c4c(Cl)cccc4Cl)=CN32)c1` (stereo unspecified), which Ki is on record?
Answer: 2 µM

Question: For `COc1ccccc1C1C(C(=O)OCCN(C)C)=C(C(C)C)N=C2SC(c3c(Cl)cccc3Cl)=CN21` (stereo unspecified), which Ki is on record?
Answer: 4 µM

Question: Which Ki does the source give for `COc1ccccc1C1C(C(=O)OCCCN(C)C)=C(C)N=C2SC(c3c(Cl)cccc3Cl)=CN21` (stereo unspecified) here?
Answer: 2.4 µM

Question: How did the Ki turn out when `COc1ccccc1C1C(C(=O)OCCN(C)C)=C(C)N=C2SC(c3ccc(Cl)cc3Cl)=CN21` (stereo unspecified) was run?
Answer: 1 µM

Question: How did the Ki turn out when `COc1ccc(C2C(C(=O)OCCN(C)C)=C(C)N=C3SC(c4c(Cl)cccc4Cl)=CN32)cc1` (stereo unspecified) was run?
Answer: 7 µM

Question: For `COc1ccccc1C1C(C(=O)OCCN(C)C)=C(C)N=C2SC(c3ccc(Cl)cc3)=CN21` (stereo unspecified), which Ki is on record?
Answer: 4 µM

Question: Which Ki does the source give for `COc1ccccc1C1C(C(=O)NCCN(C)C)=C(C)N=C2SC(c3c(Cl)cccc3Cl)=CN21` (stereo unspecified) here?
Answer: > 10 µM

Question: For `COc1ccccc1C1C(C(=O)OCCN(C)C)=C(C)N=C2SC(c3c(Cl)cccc3Cl)=CN21` (stereo unspecified), which Ki is on record?
Answer: 1.5 µM

Question: For `CCC1=C(C(=O)OCCN(C)C)C(c2ccccc2OC)N2C=C(c3c(Cl)cccc3Cl)SC2=N1` (stereo unspecified), which Ki is on record?
Answer: 1 µM

Question: Which Ki does the source give for `CC1=C(C(=O)OCCN(C)C)C(c2ccccc2Cl)N2C=C(c3c(Cl)cccc3Cl)SC2=N1` (stereo unspecified) here?
Answer: 2 µM

Question: `COc1ccccc1C1C(C(=O)OCCN(C)C)=C(C(=O)c2ccccc2)N=C2SC(c3c(Cl)cccc3Cl)=CN21` (stereo unspecified) was tested. Which Ki did it give?
Answer: > 10 µM

Question: `CC1=C(C(=O)OCCN(C)C)C(c2ccccc2OC(C)C)N2C=C(c3c(Cl)cccc3Cl)SC2=N1` (stereo unspecified) was tested. Which Ki did it give?
Answer: 2 µM

Question: How did the Ki turn out when `CC1=C(C(=O)OCCN(C)C)C(c2ccccc2F)N2C=C(c3c(Cl)cccc3Cl)SC2=N1` (stereo unspecified) was run?
Answer: 3.2 µM

Question: For `CCOc1ccccc1C1C(C(=O)OCCN(C)C)=C(C)N=C2SC(c3c(Cl)cccc3Cl)=CN21` (stereo unspecified), which Ki is on record?
Answer: 3 µM

Question: Which Ki does the source give for `CCOC(=O)C1=C(C)N=C2SC(c3c(Cl)cccc3Cl)=CN2C1c1ccccc1OC` (stereo unspecified) here?
Answer: 4 µM
